Assay [1] has as its target T1, Pancreatic elastase (Sus scrofa) (UniProt P08419+P00772). The assay is described as follows: Inhibition of porcine pancreatic elastase assessed as Ac-Ala-Ala-Pro-Ala-p-nitroanilide conversion to p-nitroaniline by spectrophotometric analysis. In kind it is protein assay.
In assay [2] the target is Pancreatic elastase (Sus scrofa, UniProt P08419+P00772). As to the kind of experiment: Noncompetitive inhibition of porcine pancreatic elastase using Ac-Ala-Ala-Pro-Ala-p-nitroanilide as substrate by Dixon plot analysis. In kind it is protein assay.
Assay [3] addresses T1, Pancreatic elastase (Sus scrofa). The assay is described as follows: Activity at porcine pancreatic elastase assessed as compound hydrolysis at 1 mg incubated at room temperature up to 24 hrs by TLC analysis. In kind it is protein assay.
Assay [4] shares this target. The assay is described as follows: Reversible inhibition of porcine pancreatic elastase assessed as enzyme recovery. In kind it is protein assay.
The target is the same in assay [5]. The assay is described as follows: Reversible inhibition of porcine pancreatic elastase assessed as enzyme recovery by sephadex G-25 rapid passage assay. The class given is protein assay.
The target is the same in assay [6]. As to the kind of experiment: Activity at porcine pancreatic elastase assessed as compound hydrolysis at 1 mg incubated at room temperature after 5 mins by TLC analysis. The class given is protein assay.
The target of assay [7] is T2, Neutrophil elastase (Homo sapiens) (UniProt P08246).
T2 sequence (whole entry): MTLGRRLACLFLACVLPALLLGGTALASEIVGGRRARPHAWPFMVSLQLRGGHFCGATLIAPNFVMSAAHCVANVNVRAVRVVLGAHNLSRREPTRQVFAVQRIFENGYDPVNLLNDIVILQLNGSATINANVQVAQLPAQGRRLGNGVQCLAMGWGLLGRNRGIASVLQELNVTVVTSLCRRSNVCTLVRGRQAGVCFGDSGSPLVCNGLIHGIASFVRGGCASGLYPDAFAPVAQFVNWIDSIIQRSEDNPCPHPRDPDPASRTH
Description: Inhibition of human granulocyte elastase assessed as Ac-Ala-Ala-Pro-Ala-p-nitroanilide conversion to p-nitroaniline by spectrophotometric analysis

Converted amounts (≈) assume the structure as drawn. The source made the active and inactive calls. No cut-off for these calls is given here. *1 amine or outer side, *2 acyl side, *3 side chain or, on linkers, in order; H or OH if unused. Where a SMILES comes first, the peptide text is derived from it. [ ]: non-standard residue; d: D form. AzaAla = CN(N[*:1])C(=O)[*:2]; Lac = C[C@H](O)C(=O)O

`CCOC(=O)[C@H](Cc1ccccc1)NC(=O)[C@H](C)OC(=O)N(C)NC(=O)[C@@H]1CCCN1C(=O)[C@H](C)NC(=O)[C@H](C)NC(C)=O`: the ID50 in assay [1] is 2 µg/mL (≈ 3.23 µM).
Consider `CC(=O)N[C@@H](C)C(=O)N[C@@H](C)C(=O)N1CCC[C@H]1C(=O)NN(C)C(=O)O[C@@H](C)C(=O)Nc1ccccc1`, for which, in assay [1], the ID50 came out at 0.4 µg/mL (≈ 0.771 µM). The Ki in assay [2] turned out to be 4.5 ×10⁻⁷ M.
Regarding `CCOC(=O)C(C)OC(=O)N(C)NC(=O)[C@@H]1CCCN1C(=O)[C@H](C)NC(=O)[C@@H]1CCCN1C(C)=O` (stereo partly drawn), the ID50 in assay [1] amounted to 4.5 µg/mL (≈ 9.04 µM).
`CC(=O)N[C@@H](C)C(=O)N[C@@H](C)C(=O)N1CCC[C@H]1C(=O)NN(C)C(=O)O[C@@H](C)C(=O)NCc1ccccc1`: in assay [1], the ID50 stood at 0.3 µg/mL (≈ 0.563 µM). In addition, the Ki in assay [2] came out at 8.5 ×10⁻⁷ M.
Turning to `CC(=O)N[C@@H](C)C(=O)N[C@@H](C)C(=O)N1CCC[C@H]1C(=O)NN(C)C(=O)O[C@@H](C)C(=O)O`, the ID50 in assay [1] was 110 µg/mL (≈ 248 µM).
Regarding `CCOC(=O)NNC(=O)[C@@H]1CCCN1C(=O)[C@H](C)NC(=O)[C@H](C)NC(C)=O`, the inhibition result in assay [1] was “inactive”.
With `CC(=O)N[C@@H](C)C(=O)N[C@@H](C)C(=O)N1CCC[C@H]1C(=O)NN(C)C(=O)O[C@@H](C)C(=O)NN`, the ID50 in assay [1] amounted to 0.25 µg/mL (≈ 0.546 µM). The compound further displayed a Ki in assay [2] of 6.5 ×10⁻⁷ M.
Turning to `CNC(=O)[C@H](C)OC(=O)N(C)NC(=O)[C@@H]1CCCN1C(=O)[C@H](C)NC(=O)[C@H](C)NC(C)=O`, the ID50 in assay [1] turned out to be 0.4 µg/mL (≈ 0.876 µM). In assay [2], this compound registered a Ki of 6.5 ×10⁻⁷ M.
As for `CCOC(=O)[C@H](Cc1ccccc1)OC(=O)N(C)NC(=O)[C@@H]1CCCN1C(=O)[C@H](C)NC(=O)[C@H](C)NC(C)=O`, in assay [1], the ID50 amounted to 2 µg/mL (≈ 3.65 µM).
For `C[C@H](NC(=O)OCc1ccccc1)C(=O)N[C@@H](C)C(=O)N1CCC[C@H]1C(=O)NN(C)C(=O)Oc1ccc([N+](=O)[O-])cc1`, in assay [1], the ID50 is 1 µg/mL (≈ 1.71 µM).
In the case of `CCOC(=O)[C@H](C)OC(=O)N(C)NC(=O)[C@H](C)NC(C)=O`, the inhibition result in assay [1] is “inactive”.
On to `CC(=O)N1CCC[C@H]1C(=O)N[C@@H](C)C(=O)N1CCC[C@H]1C(=O)NN(C)C(=O)OC(C)C(N)=O` (mixture of isomers), for which the ID50 in assay [1] amounted to 0.3 µg/mL. Besides, the result in assay [3] was inactive. For the same compound, the inhibition result in assay [4] is “inactive”. Besides, the inhibition result in assay [5] was “Active”. In addition, in assay [2], the Ki came out at 4.5 ×10⁻⁷ M.
For the compound `CCOC(=O)[C@H](C)NC(=O)N(C)NC(=O)[C@@H]1CCCN1C(=O)[C@H](C)NC(=O)[C@H](C)NC(C)=O` (Ac-AAP[AzaAla]A-OEt), the ID50 in assay [1] is 100 µg/mL (≈ 213 µM).
Regarding `CCOC(=O)[C@H](C)OC(=O)[C@H](C)OC(=O)N(C)NC(=O)[C@@H]1CCCN1C(=O)[C@H](C)NC(=O)[C@H](C)NC(C)=O`, in assay [1], the ID50 is 1.5 µg/mL (≈ 2.76 µM).
As to `CCOC(=O)[C@H](C)OC(=O)[C@H](C)NC(=O)[C@@H]1CCCN1C(=O)[C@H](C)NC(=O)[C@H](C)NC(C)=O` (Ac-AAPA[Lac]-OEt), in assay [1], the ID50 stood at 167 µg/mL (≈ 355 µM). Besides, in assay [6], the result was Active.
For the compound `CCOC(=O)NNC(=O)[C@@H]1CCCN1C(=O)[C@H](C)NC(=O)[C@@H]1CCCN1C(C)=O`, the inhibition entry in assay [1] is “inactive”.
Turning to `CCOC(=O)[C@H](C)OC(=O)[C@H](C)NC(=O)[C@@H]1CCCN1C(=O)[C@H](C)NC(=O)[C@@H]1CCCN1C(C)=O` (Ac-PAPA[Lac]-OEt), the inhibition entry in assay [1] was “inactive”. Also, in assay [6], the outcome was Active.
As for `CCOC(=O)[C@H](C)OC(=O)[C@H](C)OC(=O)[C@@H]1CCCN1C(=O)[C@H](C)NC(=O)[C@H](C)NC(C)=O` (Ac-AAP[Lac][Lac]-OEt), the ID50 in assay [1] was 33 µg/mL (≈ 70 µM).
`CC(=O)N[C@@H](C)C(=O)N[C@@H](C)C(=O)N1CCC[C@H]1C(=O)NN(C)C(=O)O[C@@H](C)C(N)=O`: the ID50 in assay [1] was determined as 0.4 µg/mL (≈ 0.904 µM). The Ki in assay [2] was determined as 5 ×10⁻⁷ M.
As for `CC(=O)N[C@@H](C)C(=O)N[C@@H](C)C(=O)N1CCC[C@H]1C(=O)NN(C)C(=O)O[C@@H](C)C(=O)OCc1ccccc1`, the ID50 in assay [1] turned out to be 0.5 µg/mL (≈ 0.937 µM).
`CCOC(=O)N(C)NC(=O)[C@H](C)NC(C)=O`: the inhibition entry in assay [1] was “inactive”.
As to `CCOC(=O)[C@H](C)OC(=O)N(C)NC(=O)[C@@H]1CCCN1C(=O)[C@H](C)NC(=O)[C@H](C)NC(C)=O`, in assay [1], the ID50 came to 1 µg/mL (≈ 2.12 µM). For the same compound, the outcome in assay [3] was inactive.
Turning to `CC(=O)N[C@@H](C)C(=O)N[C@@H](C)C(=O)N1CCC[C@H]1C(=O)NN(C)C(=O)O[C@@H](C)C(=O)N(C)N`, the figures for the ID50 in assay [1] and in assay [7] were 2 µg/mL (≈ 4.24 µM) and 50 µg/mL (≈ 106 µM), respectively.
For the compound `CCOC(=O)N(C)NC(=O)[C@@H]1CCCN1C(=O)[C@H](C)NC(=O)[C@@H]1CCCN1C(C)=O`, the ID50 in assay [1] stood at 60 µg/mL (≈ 141 µM).
As for `CCOC(=O)[C@H](C)NC(=O)N(C)NC(=O)[C@@H]1CCCN1C(=O)[C@H](C)NC(=O)[C@@H]1CCCN1C(C)=O` (Ac-PAP[AzaAla]A-OEt), the inhibition entry in assay [1] is “inactive”.
Take `CCOC(=O)[C@H](C)OC(=O)N(C)NC(=O)[C@H](CC(C)C)NC(=O)[C@H](C)NC(=O)[C@@H]1CCCN1C(C)=O`: the ID50 in assay [1] turned out to be 15 µg/mL (≈ 29.2 µM).
Still for that read-out and setting: the result for `CCOC(=O)[C@H](C)OC(=O)N(C)NC(=O)[C@H](CC(C)C)NC(=O)[C@H](C)NC(=O)[C@H](C)NC(C)=O` reads 9 µg/mL (≈ 18.5 µM).
Same read-out and setting: the same measure for `CCOC(=O)N(C)NC(=O)[C@@H]1CCCN1C(=O)[C@H](C)NC(=O)[C@H](C)NC(C)=O`: 20 µg/mL (≈ 50.1 µM); for `CCOC(=O)[C@H](C)OC(=O)N(C)NC(=O)[C@@H]1CCCN1C(=O)[C@H](C)NC(=O)[C@@H]1CCCN1C(C)=O`: 6 µg/mL (≈ 12.1 µM).
For the compound `CCOC(=O)NNC(=O)[C@@H]1CCCN1C(=O)[C@H](C)NC(=O)[C@H](C)NC(=O)OC(C)(C)C`, in assay [1], the inhibition entry was “inactive”.
With `CCOC(=O)[C@H](C)OC(=O)[C@H](C)OC(=O)N(C)NC(=O)[C@@H]1CCCN1C(=O)[C@H](C)NC(=O)[C@@H]1CCCN1C(C)=O`, the ID50 in assay [1] amounted to 1.5 µg/mL (≈ 2.63 µM).
Consider `CCOC(=O)[C@H](C)OC(=O)[C@H](C)OC(=O)[C@@H]1CCCN1C(=O)[C@H](C)NC(=O)[C@@H]1CCCN1C(C)=O` (Ac-PAP[Lac][Lac]-OEt), for which, in assay [1], the ID50 is 167 µg/mL (≈ 336 µM).
Same read-out and setting: the same measure for `CCOC(=O)N(C)NC(=O)[C@@H]1CCCN1C(=O)[C@H](C)NC(=O)[C@H](C)NC(=O)OC(C)(C)C`: 90 µg/mL (≈ 197 µM).
Take `CCOC(=O)[C@H](C)OC(=O)N(C)NC(C)=O`: the inhibition entry in assay [1] is “inactive”.
For the compound `CCOC(=O)N(C)NC(=O)[C@@H]1CCCN1C(=O)[C@H](C)NC(=O)[C@H](C)NC(=O)OCc1ccccc1`, the ID50 in assay [1] came to 30 µg/mL (≈ 61 µM).

(Values after ChEMBL document CHEMBL3272312, “Proteinase inhibitors. I. Inhibitors of elastase” (J Med Chem, 1977).)
